Data as given in PMC11554305, “Functional identification of soluble uric acid as an endogenous inhibitor of CD38” (eLife, 2024).

How the values were obtained:
[1] = test system: A549 cells; assay: Intracellular NAD+ assay in A549 cells; format: cell-based, human; conditions: sUA 100 to 500 μM, 20 hr
Experimental: A549 cells were seeded in 24-well plates for NAD^+ assay. Briefly, when the confluence reached 80%, the culture medium in each well was discarded, and the cells were washed twice with sterile PBS and incubated in RPMI-1640 medium containing 1% FBS in the presence or absence of sUA (from 100 to 500 μM) for 20 hr. Then, the cells were washed twice with sterile PBS, after the second washing, PBS was completely removed and 100 μL 5% ice-cold perchloric acid (PCA) was added into each well. The plate was kept on ice for 2 hr, then cell samples were collected and centrifuged at 15,000 rpm, 4°C for 10 min. The supernatant was used for subsequent handling and measurement (see LC-MS/MS analysis).
As mentioned above, samples (cells, tissues, blood, or reaction buffer) were treated with ice-cold PCA, after extraction and centrifugation, the collected supernatant was appropriately diluted in 5% ice-cold PCA when applicable, and then was vortexed for 30 s and centrifuged at 15,000 rpm, 4°C for 5 min. […] All the samples after handling were immediately analyzed in this study without freezing and thawing.
The LC-MS/MS system consisted of a triple quadrupole LCMS-8050 (Shimadzu) and an LC-30A system (Shimadzu). […] NAD^+ and NMN were measured independently in this study, as their peaks were hardly separated within a short time.

[2] = biological target: T1, recombinant human CD38 (hCD38) (Homo sapiens, UniProt P28907); assay: CD38 cyclase activity, recombinant hCD38 (NGD substrate); format: biochemical; conditions: sUA 0–500 μM, Figure 1B
T1 construct: the commercial recombinant hCD38 without a transmembrane region was partially used in this study; purchased Sino Biological 10818-H08H
T1 sequence (P28907 43-300 limits assumed): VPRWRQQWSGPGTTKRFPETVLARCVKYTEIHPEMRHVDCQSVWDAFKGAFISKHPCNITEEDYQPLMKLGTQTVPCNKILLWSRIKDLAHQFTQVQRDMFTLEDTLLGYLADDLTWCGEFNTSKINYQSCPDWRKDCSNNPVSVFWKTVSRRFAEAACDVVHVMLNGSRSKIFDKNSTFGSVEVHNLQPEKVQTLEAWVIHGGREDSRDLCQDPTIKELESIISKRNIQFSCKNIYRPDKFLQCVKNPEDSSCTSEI
Experimental: The cyclase activity of CD38 was measured as previously described ([Higashida et al., 1999]; [Jin et al., 2007]). CD38 cyclase activity was measured using 60 μM NGD as a substrate in cyclase reaction buffer (100 mM KCl, 10 μM CaCl2, and 50 mM Tris-HCl, pH 6.6). Tissues were cut into pieces and suspended in the buffer (5 mM MgCl2, 10 mM Tris-HCl, pH 7.3) at 4°C for 30 min. Then, the suspension was homogenized on ice, and the supernatant was collected after centrifugation. To collect the crude membrane fractions, the supernatant was centrifuged at 105,000×g for 30 min. The final pellet was resuspended in 10 mM Tris-HCl solution (pH 6.6) for cyclase assay. Homogenates of THP-1 or A549 cells, and recombinant hCD38 were used directly for cyclase assays. The loading volume of enzyme was 4–20 μL, the total volume of reaction system was 3 mL. To detect enzyme inhibition, except when specified, the ligands were directly dissolved in cyclase reaction buffer before pH adjustment, after which, the pH was immediately adjusted to 6.6. […]
(§1) The reaction buffer for hydrolase or cyclase assays was excited at 300 nm, and fluorescence emission was measured every second at 410 nm by Shimazu RF-6000 spectrofluorometer. Hydrolase or cyclase activity was calculated from the linear portion of the time course by fitting a linear function to the data points recorded within 5 min.

[3] = biological target: T2, CD38 (Homo sapiens, UniProt P28907); assay: Hydrolase activity of THP-1 cells; format: biochemical; conditions: sUA 0–500 μM, Figure 1—figure supplement 1A
T2 construct: cells or tissues were directly homogenized in blank reaction buffer on ice; host or cells: THP-1
T2 sequence (P28907 1-300): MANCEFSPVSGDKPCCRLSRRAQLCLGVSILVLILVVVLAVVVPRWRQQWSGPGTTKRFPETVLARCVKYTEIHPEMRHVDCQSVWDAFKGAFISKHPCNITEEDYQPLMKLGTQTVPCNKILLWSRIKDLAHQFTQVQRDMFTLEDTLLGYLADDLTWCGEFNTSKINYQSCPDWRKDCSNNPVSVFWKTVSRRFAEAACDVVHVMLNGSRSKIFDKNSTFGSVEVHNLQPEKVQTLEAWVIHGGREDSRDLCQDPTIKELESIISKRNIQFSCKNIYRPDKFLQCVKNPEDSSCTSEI
Experimental: The hydrolase activity of CD38 was measured according to a previous report ([de Oliveira et al., 2018]) with minor modifications. CD38 hydrolase activity was measured using 50 μM ε-NAD^+ as a substrate in hydrolase reaction buffer (250 mM sucrose, 40 mM Tris-HCl, pH 7.4). Briefly, cells or tissues were directly homogenized in blank reaction buffer on ice, and recombinant hCD38 was diluted in blank reaction buffer for subsequent assays. The tissue homogenates were centrifuged to collect the supernatant for enzyme assays. The loading volume of enzyme was 4–30 μL, the total volume of the reaction system was 3 mL. To detect enzyme inhibition, except when specified, the ligands were directly dissolved in hydrolase reaction buffer before pH adjustment, after which, the pH was immediately adjusted to 7.4. All reaction buffers, with or without ligands, were freshly prepared before each assay. For measurement of hydrolase activity, 3 mL reaction buffer containing enzyme, ε-NAD^+, and ligands at indicated concentrations was maintained at 37°C with constant stirring.
as §1

Ki [2]: 57.1 µM
Ki [3]: 75.5 µM
Compound: O=c1[nH]c(=O)c2[nH]c(=O)[nH]c2[nH]1 [sUA, uric acid]
Intracellular NAD+ [1]: boosted intracellular NAD^+
